Measured values reported in patent US20080070240A2, “COMPOSITION FOR DEAMINATING DNA AND METHOD OF DETECTING METHYLATED DNA” (Toyo Boseki Kabushiki Kaisha, priority 2004, published 2008).

Assay: Measurement of solubility of sulfites in distilled water
Conditions: for Concentration, Calculated value: calculated from mass and molecular weight; for Concentration, Measured value (sulfite concentration, solubility): method 0-A
Protocol: To a cuvette for measuring absorbance (1×1×4 cm, manufactured by Hitachi High-Technologies Co.), 3 ml of 0.1 N hydrochloric acid (manufactured by Wako Pure Chemical Co., Ltd.) was added. To the cuvette, 30 μl of a sulfite solution diluted with distilled water was added, the cuvette was covered with parafilm, and inverted 3 times to mix the solutions.
Then, the mass, volume and pH at that time were measured. In addition, with regard to each solution, the sulfite concentration was measured in accordance with the method 0-A described above.
With regard to the concentration in the table, the calculated value represents the sulfite concentration (M (mol/l)) calculated from the mass and the molecular weight of each dissolved sulfite. In addition, the measured value represents the sulfite concentration (M) measured in accordance with the method 0-A described above.

| Compound | pH of saturated solution (30° C.) | Concentration, Calculated value (30° C.) [M] | Concentration, Measured value (sulfite concentration, solubility) (30° C.) [M] | pH of saturated solution (70° C.) | Concentration, Calculated value (70° C.) [M] | solubility (30° C., distilled water, saturated) [mg/mL] |
| --- | --- | --- | --- | --- | --- | --- |
| O=S([O-])O.[Na+] [Sodium bisulfite, sodium bisulfite] | 4.4 | 5.2 | 5.0 | 4.5 | 6.5 | – |
| O=S([O-])[O-].[Na+].[Na+] [Sodium sulfite, sodium sulfite] | 10.3 | – | – | 10.5 | – | 200 |
| ammonium sulfite monohydrate | – | – | 3.5 | – | – | – |
